# Patent US8153615B2, “Synthesis of glycerolipid carbamates and dicarbamates and their use as an antitumor compounds” (priority 2005, dated 2012)
# Several values for one entry are separate records, joined by “and”; a condition that tells them apart may be missing. Equal entries are not always repeated.
# Experiments:
# MCF-7 cells = experiment: Antiproliferative evaluation, CyQuant assay, MCF-7; type: cell-based, human; conditions: exponentially growing cells, 48 h incubation, read-out: IC50, growth inhibition, MCF-7, breast
# Description: (§1) FIG. 2 is a graphical depiction of the results of an antiproliferative evaluation of compound I against the following cancer cell lines: DU145, PC3, BT549, HeLa, MDA-MB-231, A549, and MCF-7. Cells growing exponentially in 48-well plates were incubated with different concentrations of compound I for 48 h. The increases in cell numbers were determined by the CyQuant assay and are expressed as a percentage of the increase in control wells with the vehicle (0.1% ethanol). The results are the average+SD from six different wells.
# as §1, with “FIG. 3” for “FIG. 2”, “compound II” for “compound I”
# as §1, with “FIG. 4” for “FIG. 2”, “compound III” for “compound I”
# as §1, with “FIG. 5” for “FIG. 2”, “compound IV” for “compound I”
# as §1, with “FIG. 6” for “FIG. 2”, “compound V” for “compound I”, “wells. […]” for “wells.”
# SK-N-MC cells = conditions: read-out: IC50, antiproliferative effect, SK-N-MC (neuronal); proliferating cells, 0-20 μM, 48 h, CyQuant assay
# Description: (§2) Specifically, proliferating cells in 48-well plates were incubated with 0-20 μM of the compound for 48 hours. The cell numbers present were determined by the CyQuant™ assay (Invitrogen), and the increase in numbers were expressed relative to the controls receiving only the vehicle (0.1% ethanol).
# (§3) Proliferating cells in 48-well plates were incubated with 0-20 μM of the compound for 48 h. The cell numbers present were determined by the CyQuant™ assay (Invitrogen), and the increase in numbers were expressed relative to the controls receiving only the vehicle (0.1% ethanol).
# HepG2 cells = conditions: read-out: IC50, antiproliferative effect, HepG2 (liver); proliferating cells, 0-20 μM, 48 h, CyQuant assay
# Description: as §2, §3
# SK-N-SH cells = conditions: read-out: IC50, antiproliferative effect, SK-N-SH (neuronal); proliferating cells, 0-20 μM, 48 h, CyQuant assay
# Description: as §2, §3
# [1] = tested on: prostate cancer cells (DU145, PC3) relative to other cancer cell lines; experiment: Prostate cancer cell selectivity across the panel of human cancer cell lines; type: cell-based; conditions: prostate lines versus other cancer cell lines, 48 h
# Source text: (§4) We screened the compounds against a panel of human cancer cell lines derived from a number of tissues. These were breast (MCF-7, BT549, SKBr3, MDA-MB-231), lung (A549), cervix (HeLa), and prostate (DU145, PC3) cancer cell lines. […] In some cases, the IC50 values were much lower than values reported for ET-18-OCH3, indicative of a greater degree of potency of these new compounds. The most striking observation is that the greatest inhibition of cell growth was found when the two prostate cell lines, DU145 and PC3, were treated with these compounds. […] Because hormone-insensitive prostate cancer cells are highly sensitive to the active compounds described herein, (compounds I, II, and III), we postulate that it may be possible to selectively kill prostate cancer cells with low concentrations without harming other cells in the body. The prostate selectivity observed with compound I was also observed with compounds II and III (Table 1 and FIGS. 3 and 4) and distinguishes these compounds from other antitumor compounds.
# DU145 cells [2] = experiment: Antiproliferative evaluation, CyQuant assay, DU145; type: cell-based, human; conditions: exponentially growing cells, 48 h incubation, read-out: IC50, growth inhibition, DU145, prostate
# Description: as §1
# as §1, with “FIG. 3” for “FIG. 2”, “compound II” for “compound I”
# as §1, with “FIG. 4” for “FIG. 2”, “compound III” for “compound I”
# as §1, with “FIG. 5” for “FIG. 2”, “compound IV” for “compound I”
# as §1, with “FIG. 6” for “FIG. 2”, “compound V” for “compound I”
# (§5) We screened the compounds against a panel of human cancer cell lines derived from a number of tissues. […]
# PC3 cells = experiment: Antiproliferative evaluation, CyQuant assay, PC3; type: cell-based, human; conditions: exponentially growing cells, 48 h incubation, read-out: IC50, growth inhibition, PC3, prostate
# Description: as §1
# as §1, with “FIG. 3” for “FIG. 2”, “compound II” for “compound I”
# as §1, with “FIG. 4” for “FIG. 2”, “compound III” for “compound I”
# as §1, with “FIG. 5” for “FIG. 2”, “compound IV” for “compound I”
# as §1, with “FIG. 6” for “FIG. 2”, “compound V” for “compound I”
# as §5
# A549 cells = experiment: Antiproliferative evaluation, CyQuant assay, A549; type: cell-based, human; conditions: exponentially growing cells, 48 h incubation, read-out: IC50, growth inhibition, A549, lung
# Description: as §1
# as §1, with “FIG. 3” for “FIG. 2”, “compound II” for “compound I”
# as §1, with “FIG. 4” for “FIG. 2”, “compound III” for “compound I”
# as §1, with “FIG. 5” for “FIG. 2”, “compound IV” for “compound I”
# as §1, with “FIG. 6” for “FIG. 2”, “compound V” for “compound I”, “wells. […]” for “wells.”
# BT549 cells = experiment: Antiproliferative evaluation, CyQuant assay, BT549; type: cell-based, human; conditions: exponentially growing cells, 48 h incubation, read-out: IC50, growth inhibition, BT549, breast
# Description: as §1
# as §1, with “FIG. 3” for “FIG. 2”, “compound II” for “compound I”, “ethanol). […]” for “ethanol). The results are the average+SD from six different wells.”
# (§6) FIG. 4 is a graphical depiction of the results of an antiproliferative evaluation of compound III against the following cancer cell lines: DU145, PC3, BT549, HeLa, MDA-MB-231, A549, and MCF-7. […] The increases in cell numbers were determined by the CyQuant assay and are expressed as a percentage of the increase in control wells with the vehicle (0.1% ethanol). […]
# as §6, with “FIG. 5” for “FIG. 4”, “compound IV” for “compound III”
# as §6, with “FIG. 6” for “FIG. 4”, “compound V” for “compound III”
# HeLa cells = experiment: Antiproliferative evaluation, CyQuant assay, HeLa; type: cell-based, human; conditions: exponentially growing cells, 48 h incubation, read-out: IC50, growth inhibition, HeLa, cervix
# Description: as §1
# as §1, with “FIG. 3” for “FIG. 2”, “compound II” for “compound I”, “ethanol). […]” for “ethanol). The results are the average+SD from six different wells.”
# as §6
# as §6, with “FIG. 5” for “FIG. 4”, “compound IV” for “compound III”
# as §6, with “FIG. 6” for “FIG. 4”, “compound V” for “compound III”
# DU145 cells [3] = experiment: Toxicity (loss of viability) to DU145 cells; type: cell-based, human
# Source text: as §4
# MDA-MB-231 cells = experiment: Antiproliferative evaluation, CyQuant assay, MDA-MB-231; type: cell-based, human; conditions: exponentially growing cells, 48 h incubation, read-out: IC50, growth inhibition, MDA-MB-231, breast
# Description: as §1
# as §1, with “FIG. 3” for “FIG. 2”, “compound II” for “compound I”, “ethanol). […]” for “ethanol). The results are the average+SD from six different wells.”
# as §6
# as §6, with “FIG. 5” for “FIG. 4”, “compound IV” for “compound III”
# as §6, with “FIG. 6” for “FIG. 4”, “compound V” for “compound III”
Compound,IC50 (MCF-7 cells) [µM],IC50 (SK-N-MC cells) [µM],IC50 (HepG2 cells) [µM],IC50 (SK-N-SH cells) [µM],prostate cancer cell selectivity [1],IC50 (DU145 cells [2]),IC50 (PC3 cells) [µM],IC50 (A549 cells) [µM],IC50 (BT549 cells) [µM],IC50 (HeLa cells) [µM],concentration toxic to the cells (loss of viability) (DU145 cells [3]) [µM],IC50 (MDA-MB-231 cells) [µM]
"1-O-(7-N, N-dimethylamino-3-pentadecanoyl-1-napthyl)-2-O-methyl-sn-glycero-3-phosphocholine",> 20,> 20,> 20,< 20,highly selective for prostate cancer cells,3.5 µM,1.9,> 20,–,–,–,–
"CCCCCCCCCCCCCCCCOC[C@@H](CCP(=O)([O-])OCC[N+](C)(C)C)OC(=O)NC [Compound I, 2′-(trimethylammonio)ethyl 4-hexadecyloxy-3(R)—N-methylcarbamoyl-1-butanephosphonate]",4,–,–,–,–,1 µM and 1.2 µM,1.2,10.7,4.4,3.3,2.5,3.7
"CCCCCCCCCCCCCCCCOC[C@H](CCP(=O)([O-])OCC[N+](C)(C)C)OC(=O)NC [Compound II, 2′-(trimethylammonio)ethyl 4-hexadecyloxy-3(S)—N-methylcarbamoyl-1-butane-phosphonate]",10.1,–,–,–,–,2.1 µM,2.5,> 20,6.8,7.9,–,6.1
"CCCCCCCCCCCCCCCCOC[C@@H](COP(=O)([O-])OCC[N+](C)(C)C)NC(=O)OC [Compound III, 2′-(trimethylammonio)ethyl 2(S)—(N-methoxycarbonylamido)-3-hexadecyloxypropanephosphate]",9.1,–,–,–,greatest prostate cancer cell selectivity,2.4 µM,1.9,> 20,13.4,19.3,–,10.5
